Measurements as given in PubChem BioAssay (NCI).
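Each compound was tested at five concentrations against cells in 96-well plates for 48 hours. TGI: concentration producing complete growth inhibition.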

Key:
Assay in all cases: NCI anticancer screen, dose series, 48 h
LOX IMVI melanoma = test system: LOX IMVI melanoma
M14 melanoma = test system: M14 melanoma
SNB-78 CNS = test system: SNB-78 CNS
SK-MEL-5 melanoma = test system: SK-MEL-5 melanoma
U251 CNS = test system: U251 CNS
DLD-1 colon = test system: DLD-1 colon
K-562 leukemia = test system: K-562 leukemia
786-0 renal = test system: 786-0 renal
HOP-62 NSCLC = test system: HOP-62 NSCLC
M19-MEL melanoma = test system: M19-MEL melanoma
RXF 393 renal = test system: RXF 393 renal
HL-60(TB) leukemia = test system: HL-60(TB) leukemia
NCI-H460 lung = test system: NCI-H460 lung
SK-MEL-2 melanoma = test system: SK-MEL-2 melanoma
SF-295 CNS = test system: SF-295 CNS
A549 NSCLC = test system: A549 NSCLC
MALME-3M melanoma = test system: MALME-3M melanoma
MOLT-4 leukemia = test system: MOLT-4 leukemia
TK-10 renal = test system: TK-10 renal
SNB-75 CNS = test system: SNB-75 CNS
OVCAR-8 ovarian = test system: OVCAR-8 ovarian
KM12 colon = test system: KM12 colon
OVCAR-5 ovarian = test system: OVCAR-5 ovarian
UO-31 renal = test system: UO-31 renal
SF-268 CNS = test system: SF-268 CNS
CAKI-1 renal = test system: CAKI-1 renal
NCI-H23 lung = test system: NCI-H23 lung
SR leukemia = test system: SR leukemia
LXFL 529 NSCLC = test system: LXFL 529 NSCLC
SW-620 colon = test system: SW-620 colon
SK-MEL-28 melanoma = test system: SK-MEL-28 melanoma
NCI-H522 lung = test system: NCI-H522 lung
DMS 273 small cell lung = test system: DMS 273 small cell lung
HOP-18 NSCLC = test system: HOP-18 NSCLC
NCI-H226 lung = test system: NCI-H226 lung
UACC-62 melanoma = test system: UACC-62 melanoma
HCT-116 colon = test system: HCT-116 colon
IGROV1 ovarian = test system: IGROV1 ovarian
ACHN renal = test system: ACHN renal
OVCAR-4 ovarian = test system: OVCAR-4 ovarian
HCT-15 colon = test system: HCT-15 colon
SK-OV-3 ovarian = test system: SK-OV-3 ovarian
DMS 114 small cell lung = test system: DMS 114 small cell lung
RPMI-8226 leukemia = test system: RPMI-8226 leukemia
COLO 205 colon = test system: COLO 205 colon
HOP-92 NSCLC = test system: HOP-92 NSCLC
UACC-257 melanoma = test system: UACC-257 melanoma
SN12C renal = test system: SN12C renal
CCRF-CEM leukemia = test system: CCRF-CEM leukemia
HT29 colon = test system: HT29 colon
SF-539 CNS = test system: SF-539 CNS
HCC-2998 colon = test system: HCC-2998 colon
A498 renal = test system: A498 renal
EKVX NSCLC = test system: EKVX NSCLC
SNB-19 CNS = test system: SNB-19 CNS
OVCAR-3 ovarian = test system: OVCAR-3 ovarian
XF 498 CNS = test system: XF 498 CNS
KM20L2 colon = test system: KM20L2 colon

CCCC(=O)OCC(O)CO (stereo not drawn)
TGI (LOX IMVI melanoma): > 5000 µM | TGI (M14 melanoma): > 5000 µM | TGI (SNB-78 CNS): > 5000 µM | TGI (SK-MEL-5 melanoma): > 5000 µM | TGI (U251 CNS): > 5000 µM | TGI (DLD-1 colon): > 5000 µM | TGI (K-562 leukemia): > 5000 µM | TGI (786-0 renal): > 5000 µM | TGI (HOP-62 NSCLC): > 5000 µM | TGI (M19-MEL melanoma): > 5000 µM | TGI (RXF 393 renal): > 5000 µM | TGI (HL-60(TB) leukemia): > 5000 µM | TGI (NCI-H460 lung): > 5000 µM | TGI (SK-MEL-2 melanoma): > 5000 µM | TGI (SF-295 CNS): > 5000 µM | TGI (A549 NSCLC): > 5000 µM | TGI (MALME-3M melanoma): > 5000 µM | TGI (MOLT-4 leukemia): > 5000 µM | TGI (TK-10 renal): > 5000 µM | TGI (SNB-75 CNS): > 5000 µM | TGI (OVCAR-8 ovarian): > 5000 µM | TGI (KM12 colon): > 5000 µM | TGI (OVCAR-5 ovarian): 4700 µM | TGI (UO-31 renal): > 5000 µM | TGI (SF-268 CNS): > 5000 µM | TGI (CAKI-1 renal): > 5000 µM | TGI (NCI-H23 lung): > 5000 µM | TGI (SR leukemia): > 5000 µM | TGI (LXFL 529 NSCLC): > 5000 µM | TGI (SW-620 colon): > 5000 µM | TGI (SK-MEL-28 melanoma): > 5000 µM | TGI (NCI-H522 lung): > 5000 µM | TGI (DMS 273 small cell lung): > 5000 µM | TGI (HOP-18 NSCLC): > 5000 µM | TGI (NCI-H226 lung): > 5000 µM | TGI (UACC-62 melanoma): > 5000 µM | TGI (HCT-116 colon): > 5000 µM | TGI (IGROV1 ovarian): > 5000 µM | TGI (ACHN renal): > 5000 µM | TGI (OVCAR-4 ovarian): > 5000 µM | TGI (HCT-15 colon): > 5000 µM | TGI (SK-OV-3 ovarian): > 5000 µM | TGI (DMS 114 small cell lung): > 5000 µM | TGI (RPMI-8226 leukemia): > 5000 µM | TGI (COLO 205 colon): > 5000 µM | TGI (HOP-92 NSCLC): > 5000 µM | TGI (UACC-257 melanoma): > 5000 µM | TGI (SN12C renal): > 5000 µM | TGI (CCRF-CEM leukemia): > 5000 µM | TGI (HT29 colon): > 5000 µM | TGI (SF-539 CNS): > 5000 µM

O=c1[nH]c2c(O)cccc2c2cc3c(c(O)c12)OCO3
TGI (LOX IMVI melanoma): 38.9 µM | TGI (M14 melanoma): 52.4 µM | TGI (SNB-78 CNS): 80.4 µM | TGI (SK-MEL-5 melanoma): > 100 µM | TGI (U251 CNS): 63.4 µM | TGI (DLD-1 colon): 62.4 µM | TGI (K-562 leukemia): > 100 µM | TGI (786-0 renal): > 100 µM | TGI (HOP-62 NSCLC): 61.8 µM | TGI (M19-MEL melanoma): 93.5 µM | TGI (HL-60(TB) leukemia): 31.1 µM | TGI (NCI-H460 lung): 36.6 µM | TGI (SF-295 CNS): 44.8 µM | TGI (HCC-2998 colon): 56.1 µM | TGI (A498 renal): 56.5 µM | TGI (A549 NSCLC): > 100 µM | TGI (MALME-3M melanoma): 56.4 µM | TGI (MOLT-4 leukemia): > 100 µM | TGI (TK-10 renal): > 100 µM | TGI (EKVX NSCLC): 77.4 µM | TGI (SNB-75 CNS): > 100 µM | TGI (OVCAR-8 ovarian): > 100 µM | TGI (KM12 colon): 41.2 µM | TGI (UO-31 renal): 54.1 µM | TGI (SF-268 CNS): 94.2 µM | TGI (CAKI-1 renal): 40.8 µM | TGI (LXFL 529 NSCLC): 73.1 µM | TGI (SW-620 colon): > 100 µM | TGI (NCI-H522 lung): 63.4 µM | TGI (DMS 273 small cell lung): 59.3 µM | TGI (HOP-18 NSCLC): 0.877 µM | TGI (NCI-H226 lung): 55 µM | TGI (UACC-62 melanoma): 71.3 µM | TGI (HCT-116 colon): 54.1 µM | TGI (IGROV1 ovarian): > 100 µM | TGI (SNB-19 CNS): 70.5 µM | TGI (ACHN renal): 49.4 µM | TGI (OVCAR-4 ovarian): 43.6 µM | TGI (HCT-15 colon): > 100 µM | TGI (SK-OV-3 ovarian): 84.7 µM | TGI (DMS 114 small cell lung): 75.8 µM | TGI (RPMI-8226 leukemia): 92 µM | TGI (COLO 205 colon): 34.5 µM | TGI (HOP-92 NSCLC): 63.9 µM | TGI (UACC-257 melanoma): 47.6 µM | TGI (SN12C renal): 92.3 µM | TGI (OVCAR-3 ovarian): 45.2 µM | TGI (XF 498 CNS): 56 µM | TGI (CCRF-CEM leukemia): 64.3 µM | TGI (HT29 colon): 50.6 µM | TGI (SF-539 CNS): 54.4 µM | TGI (KM20L2 colon): 40.4 µM
